ChEMBL document CHEMBL5620419, “Discovery of new Lenalidomide derivatives as potent and selective GSPT1 degraders” (Eur J Med Chem, 2023)
Calls of active or inactive are those of the source. The calls are words filed in the database; no cut-off is given here.

Key:
U-937 [1] = test: Induction of cell cycle arrest in human U-937 cells assessed as accumulation of cells at G0/G1 phase at 10 nM measured after 24 hrs by propidium iodide staining based flow cytometry analysis (reference value: 61.09%); assay type: functional
U-937 [2] = test: Induction of apoptosis in human U-937 cells assessed as necrotic cells at 10 nM measured after 24 hr by Annexin V-FITC/7AAD staining based flow cytometry (reference value: 3.52%); assay type: functional
U-937 [3] = test: Induction of apoptosis in human U-937 cells assessed as viable cells at 30 nM measured after 24 hr by Annexin V-FITC/7AAD staining based flow cytometry (reference value: 93.55%); assay type: functional; conditions: read-out: Activity
U-937 [4] = test: Induction of apoptosis in human U-937 cells assessed as late apoptotic cells at 100 nM measured after 24 hr by Annexin V-FITC/7AAD staining based flow cytometry (reference value: 1.49%); assay type: functional
MOLT-4 = test: Antiproliferative activity against human MOLT-4 cells measured after 72 hrs by CCK-8 method; assay type: functional, cell-based; conditions: MOLT-4, 72 h
[5] = molecular target: Cereblon/Ikaros (Homo sapiens) (UniProt Q96SW2+Q13422); test: PROTAC activity at CRBN/IKZF1 in human U-937 cells at upto 300 nM by Western blot analysis; assay type: cell-based
[6] = molecular target: T1, Protein cereblon/Eukaryotic peptide chain release factor GTP-binding subunit ERF3A (Homo sapiens) (UniProt Q96SW2+P15170); test: PROTAC activity at CRBN/GSPT1 in human U-937 cells assessed as half life measured upto 24 hrs in presence of cycloheximide by Western blot analysis; assay type: cell-based
T1 sequence (P15170 whole entry, looked up): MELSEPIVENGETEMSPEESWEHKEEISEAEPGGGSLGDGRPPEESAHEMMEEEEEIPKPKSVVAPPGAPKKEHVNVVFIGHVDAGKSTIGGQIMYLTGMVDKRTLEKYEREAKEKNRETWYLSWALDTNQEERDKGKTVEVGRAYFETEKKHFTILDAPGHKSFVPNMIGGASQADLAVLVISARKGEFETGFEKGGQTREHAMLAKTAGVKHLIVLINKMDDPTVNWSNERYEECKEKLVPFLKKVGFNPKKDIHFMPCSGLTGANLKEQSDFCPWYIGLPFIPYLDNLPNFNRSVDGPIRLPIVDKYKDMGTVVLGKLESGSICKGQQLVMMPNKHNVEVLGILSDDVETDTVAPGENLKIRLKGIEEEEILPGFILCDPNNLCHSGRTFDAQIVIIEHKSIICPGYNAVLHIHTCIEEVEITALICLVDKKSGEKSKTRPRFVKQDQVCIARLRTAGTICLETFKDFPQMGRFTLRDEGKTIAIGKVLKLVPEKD
T1 sequence (Q96SW2 whole entry, looked up): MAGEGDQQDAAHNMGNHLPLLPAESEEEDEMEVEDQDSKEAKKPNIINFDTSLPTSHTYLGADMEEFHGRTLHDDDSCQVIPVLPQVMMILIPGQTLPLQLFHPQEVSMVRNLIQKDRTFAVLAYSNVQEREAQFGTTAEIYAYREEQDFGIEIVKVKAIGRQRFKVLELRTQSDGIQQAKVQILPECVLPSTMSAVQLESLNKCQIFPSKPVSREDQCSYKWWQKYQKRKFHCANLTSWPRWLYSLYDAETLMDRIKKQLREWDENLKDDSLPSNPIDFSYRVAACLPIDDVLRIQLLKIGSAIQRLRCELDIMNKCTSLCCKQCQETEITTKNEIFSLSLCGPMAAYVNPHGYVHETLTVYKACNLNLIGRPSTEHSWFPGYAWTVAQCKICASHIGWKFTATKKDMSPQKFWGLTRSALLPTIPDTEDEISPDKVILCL

U-937 [7] = test: Induction of apoptosis in human U-937 cells assessed as late apoptotic cells at 10 nM measured after 24 hr by Annexin V-FITC/7AAD staining based flow cytometry (reference value: 1.49%); assay type: functional
U-937 [8] = test: Induction of cell cycle arrest in human U-937 cells assessed as accumulation of cells at G2/M phase at 30 nM measured after 24 hrs by propidium iodide staining based flow cytometry analysis (reference value: 32.33%); assay type: functional
U-937 [9] = test: Induction of cell cycle arrest in human U-937 cells assessed as accumulation of cells at G2/M phase at 100 nM measured after 24 hrs by propidium iodide staining based flow cytometry analysis (reference value: 32.33%); assay type: functional
[10] = Downregulation of RNT2 level in human U-937 cells assessed as fold change at 0.1 uM measured after 6 hrs; assay type: functional
[11] = Downregulation of SRP72 level in human U-937 cells assessed as fold change at 0.1 uM measured after 6 hrs; assay type: functional
U-937 [12] = test: Downregulation of CDK6 level in human U-937 cells measured after 24 hrs by Western blot analysis; assay type: functional, cell-based; conditions: dose 10-100 nM
MV4-11 = test: Antiproliferative activity against human MV4-11 cells measured after 72 hrs by CCK-8 method; assay type: functional, cell-based; conditions: MV4-11, 72 h
U-937 [13] = test: Induction of apoptosis in human U-937 cells assessed as viable cells at 100 nM measured after 24 hr by Annexin V-FITC/7AAD staining based flow cytometry (reference value: 93.55%); assay type: functional; conditions: read-out: Activity
U-937 [14] = test: Induction of cell cycle arrest in human U-937 cells assessed as accumulation of cells at S phase at 100 nM measured after 24 hrs by propidium iodide staining based flow cytometry analysis (reference value: 6.38%); assay type: functional
[15] = molecular target: T1, Protein cereblon/Eukaryotic peptide chain release factor GTP-binding subunit ERF3A (Homo sapiens); test: PROTAC activity at CRBN/GSPT1 in human U-937 cells assessed as increase in ubiquitination of GSPT1 at 100 nM preincubated with MG-132 for 2 hrs followed by compound treatment and measured after 24 hrs by coimmunoprecipitation analysis; assay type: cell-based
[16] = molecular target: T1, Protein cereblon/Eukaryotic peptide chain release factor GTP-binding subunit ERF3A (Homo sapiens); test: (§1) PROTAC activity at CRBN/GSPT1 in human U-937 cells assessed as degradation of GSPT1 measured after 6 hrs by Western blot analysis; assay type: cell-based; conditions: dose <= 300.0 nM
[17] = molecular target: Protein cereblon/Eukaryotic peptide chain release factor GTP-binding subunit ERF3A (Homo sapiens, UniProt P15170+Q96SW2); test: as §1; assay type: cell-based
Sequence of Protein cereblon/Eukaryotic peptide chain release factor GTP-binding subunit ERF3A (Q96SW2 whole entry): as the sequence (Q96SW2 whole entry, looked up) above
Sequence of Protein cereblon/Eukaryotic peptide chain release factor GTP-binding subunit ERF3A (P15170 whole entry): as the sequence (P15170 whole entry, looked up) above

[18] = Cmax in oral dosed Sprague-Dawley rat; assay type: ADME, organism-based; conditions: in vivo
[19] = Downregulation of GSPT1 level in human U-937 cells assessed as fold change at 0.1 uM measured after 6 hrs; assay type: functional
[20] = Downregulation of AIMP2 level in human U-937 cells assessed as fold change at 0.1 uM measured after 6 hrs; assay type: functional
[21] = Downregulation of K1C10 level in human U-937 cells assessed as fold change at 0.1 uM measured after 6 hrs; assay type: functional
[22] = AUC (0 to t) in ip dosed Sprague-Dawley rat; assay type: ADME, organism-based; conditions: in vivo
[23] = molecular target: Protein cereblon/Zinc finger protein Aiolos (Homo sapiens) (UniProt Q96SW2+Q9UKT9); test: PROTAC activity at CRBN/IKZF3 in human U-937 cells at upto 300 nM; assay type: cell-based
Sequence of Protein cereblon/Zinc finger protein Aiolos (Homo sapiens) (Q96SW2 whole entry, looked up): as the sequence (Q96SW2 whole entry, looked up) above
Sequence of Protein cereblon/Zinc finger protein Aiolos (Homo sapiens) (Q9UKT9 whole entry, looked up): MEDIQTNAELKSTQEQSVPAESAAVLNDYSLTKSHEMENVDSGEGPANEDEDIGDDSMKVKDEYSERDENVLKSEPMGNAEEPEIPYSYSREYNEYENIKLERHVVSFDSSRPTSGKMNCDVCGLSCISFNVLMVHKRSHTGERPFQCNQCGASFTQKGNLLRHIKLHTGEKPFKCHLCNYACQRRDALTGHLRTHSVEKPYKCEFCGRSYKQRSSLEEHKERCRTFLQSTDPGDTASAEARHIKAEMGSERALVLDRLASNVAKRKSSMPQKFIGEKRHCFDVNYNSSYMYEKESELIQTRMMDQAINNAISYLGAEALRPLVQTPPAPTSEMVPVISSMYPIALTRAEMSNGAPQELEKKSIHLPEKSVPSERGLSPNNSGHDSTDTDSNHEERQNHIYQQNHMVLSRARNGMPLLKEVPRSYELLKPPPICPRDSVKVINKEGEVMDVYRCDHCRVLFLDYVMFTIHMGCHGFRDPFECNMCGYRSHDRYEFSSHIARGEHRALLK

[24] = Downregulation of TIM9 level in human U-937 cells assessed as fold change at 0.1 uM measured after 6 hrs; assay type: functional
U-937 [25] = test: Induction of cell cycle arrest in human U-937 cells assessed as accumulation of cells at G0/G1 phase at 100 nM measured after 24 hrs by propidium iodide staining based flow cytometry analysis (reference value: 61.09%); assay type: functional
U-937 [26] = test: Induction of cell cycle arrest in human U-937 cells assessed as accumulation of cells at G2/M phase at 10 nM measured after 24 hrs by propidium iodide staining based flow cytometry analysis (reference value: 32.33%); assay type: functional
U-937 [27] = test: Induction of apoptosis in human U-937 cells assessed as early apoptotic cells at 100 nM measured after 24 hr by Annexin V-FITC/7AAD staining based flow cytometry (reference value: 1.44%); assay type: functional
U-937 [28] = test: Induction of apoptosis in human U-937 cells assessed as early apoptotic cells at 30 nM measured after 24 hr by Annexin V-FITC/7AAD staining based flow cytometry (reference value: 1.44%); assay type: functional
U-937 [29] = test: Induction of apoptosis in human U-937 cells assessed as early apoptotic cells at 10 nM measured after 24 hr by Annexin V-FITC/7AAD staining based flow cytometry (reference value: 1.44%); assay type: functional
[30] = Half life in ip dosed Sprague-Dawley rat; assay type: ADME, organism-based; conditions: in vivo
[31] = molecular target: T1, Protein cereblon/Eukaryotic peptide chain release factor GTP-binding subunit ERF3A (Homo sapiens); test: PROTAC activity at CRBN/GSPT1 in human MV4-11 cells assessed as degradation of GSPT1 at upto 300 nM by Western blot analysis; assay type: cell-based
U-937 [32] = test: Downregulation of cyclin B1 level in human U-937 cells measured after 24 hrs by Western blot analysis; assay type: functional, cell-based; conditions: dose 10-100 nM
[33] = molecular target: T1, Protein cereblon/Eukaryotic peptide chain release factor GTP-binding subunit ERF3A (Homo sapiens); test: PROTAC activity at CRBN/GSPT1 in human U-937 cells assessed as induction of GSPT1 degradation preincubated with MLN4924 for 2 hrs followed by compound addition and measured after 6 hrs by Western blot analysis; assay type: cell-based
U-937 [34] = test: Induction of apoptosis in human U-937 cells assessed as necrotic cells at 100 nM measured after 24 hr by Annexin V-FITC/7AAD staining based flow cytometry (reference value: 3.52%); assay type: functional
[35] = Cmax in ip dosed Sprague-Dawley rat; assay type: ADME, organism-based; conditions: in vivo
U-937 [36] = test: Upregulation of caspase-9 level in human U-937 cells measured after 24 hrs by Western blot analysis; assay type: functional, cell-based; conditions: dose 10-100 nM
[37] = AUC (0 to t) in oral dosed Sprague-Dawley rat; assay type: ADME, organism-based; conditions: in vivo
[38] = molecular target: T1, Protein cereblon/Eukaryotic peptide chain release factor GTP-binding subunit ERF3A (Homo sapiens); test: PROTAC activity at CRBN/GSPT1 in human MOLT-4 cells assessed as degradation of GSPT1 at upto 300 nM by Western blot analysis; assay type: cell-based
[39] = Downregulation of SYIC level in human U-937 cells assessed as fold change at 0.1 uM measured after 6 hrs; assay type: functional
U-937 [40] = test: Induction of apoptosis in human U-937 cells assessed as necrotic cells at 30 nM measured after 24 hr by Annexin V-FITC/7AAD staining based flow cytometry (reference value: 3.52%); assay type: functional
U-937 [41] = test: Induction of cell cycle arrest in human U-937 cells assessed as accumulation of cells at G0/G1 phase at 30 nM measured after 24 hrs by propidium iodide staining based flow cytometry analysis (reference value: 61.09%); assay type: functional
[42] = Downregulation of K2C1 level in human U-937 cells assessed as fold change at 0.1 uM measured after 6 hrs; assay type: functional
[43] = molecular target: T1, Protein cereblon/Eukaryotic peptide chain release factor GTP-binding subunit ERF3A (Homo sapiens); test: PROTAC activity at CRBN/GSPT1 in human U-937 cells assessed as degradation of GSPT1 at 100 nM measured after 4 to 24 hrs by Western blot analysis; assay type: cell-based; conditions: time 4-24 hrs
U-937 [44] = test: Antiproliferative activity against human U-937 cells measured after 72 hrs by CCK-8 method; assay type: functional, cell-based; conditions: U-937, 72 h
[45] = Downregulation of SCAM2 level in human U-937 cells assessed as fold change at 0.1 uM measured after 6 hrs; assay type: functional
[46] = Downregulation of AMPN level in human U-937 cells assessed as fold change at 0.1 uM measured after 6 hrs; assay type: functional
U-937 [47] = test: Upregulation of cleaved caspase-3 level in human U-937 cells measured after 24 hrs by Western blot analysis; assay type: functional, cell-based; conditions: dose 10-100 nM
[48] = molecular target: Cereblon/Casein kinase I alpha (Homo sapiens) (UniProt P48729+Q96SW2); test: PROTAC activity at CRBN/CK1alpha in human U-937 cells at upto 300 nM by Western blot analysis; assay type: cell-based
Sequence of Cereblon/Casein kinase I alpha (Homo sapiens) (P48729 2-337 limits assumed): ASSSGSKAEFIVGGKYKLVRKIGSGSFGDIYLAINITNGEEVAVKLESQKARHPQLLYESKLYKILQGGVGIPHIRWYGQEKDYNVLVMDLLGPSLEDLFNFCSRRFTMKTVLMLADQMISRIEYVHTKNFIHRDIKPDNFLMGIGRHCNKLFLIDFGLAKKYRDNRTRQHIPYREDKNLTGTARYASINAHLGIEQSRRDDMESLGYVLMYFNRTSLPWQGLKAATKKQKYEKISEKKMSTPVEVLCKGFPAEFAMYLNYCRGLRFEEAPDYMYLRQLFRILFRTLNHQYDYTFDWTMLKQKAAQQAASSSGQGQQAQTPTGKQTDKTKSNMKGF
Sequence of Cereblon/Casein kinase I alpha (Homo sapiens) (Q96SW2 whole entry partner): as the sequence (Q96SW2 whole entry, looked up) above

U-937 [49] = test: Induction of apoptosis in human U-937 cells assessed as late apoptotic cells at 30 nM measured after 24 hr by Annexin V-FITC/7AAD staining based flow cytometry (reference value: 1.49%); assay type: functional
[50] = Downregulation of SEC13 level in human U-937 cells assessed as fold change at 0.1 uM measured after 6 hrs; assay type: functional
[51] = molecular target: T1, Protein cereblon/Eukaryotic peptide chain release factor GTP-binding subunit ERF3A (Homo sapiens); test: PROTAC activity at CRBN/GSPT1 in human U-937 cells assessed as degradation of GSPT1 at 300 nM measured after 6 hrs by Western blot analysis relative to control; assay type: cell-based
U-937 [52] = test: Induction of cell cycle arrest in human U-937 cells assessed as accumulation of cells at S phase at 30 nM measured after 24 hrs by propidium iodide staining based flow cytometry analysis (reference value: 6.38%); assay type: functional
U-937 [53] = test: Induction of apoptosis in human U-937 cells assessed as viable cells at 10 nM measured after 24 hr by Annexin V-FITC/7AAD staining based flow cytometry (reference value: 93.55%); assay type: functional; conditions: read-out: Activity
[54] = molecular target: T1, Protein cereblon/Eukaryotic peptide chain release factor GTP-binding subunit ERF3A (Homo sapiens); test: PROTAC activity at CRBN/GSPT1 in human U-937 cells assessed as induction of GSPT1 degradation preincubated with MG132 for 2 hrs followed by compound addition and measured after 6 hrs by Western blot analysis; assay type: cell-based
U-937 [55] = test: Induction of cell cycle arrest in human U-937 cells assessed as accumulation of cells at S phase at 10 nM measured after 24 hrs by propidium iodide staining based flow cytometry analysis (reference value: 6.38%); assay type: functional

COCCN(C)Cc1cc(NC(=O)CCc2ccc3c(c2)C(=O)N(C2CCC(=O)NC2=O)C3)cc(Cl)c1C (configuration not stated)
Activity (U-937 [1]): 50.22%
Activity (U-937 [2]): 2.73%
viability at 0.03 µM (U-937 [3]): 65.5%
Activity (U-937 [4]): 27.48%
IC50 (MOLT-4): 6 nM
Activity [5]: inactive
T1/2 [6]: 6.3 h
Activity (U-937 [7]): 2.34%
Activity (U-937 [8]): 26.07%
Activity (U-937 [9]): 20.68%
log(activity) [10]: -3.36
log(activity) [11]: -3.32
Activity (U-937 [12]): Dose-Dependent Effect
IC50 (MV4-11): 27 nM
viability at 0.1 µM (U-937 [13]): 44.9%
Activity (U-937 [14]): 6.73%
Activity [15]: Active
Activity [16]: Dose-Dependent Effect
EC50 [17]: 35 nM
Cmax [18]: 671 ng/mL
log(activity) [19]: -3.32
log(activity) [20]: -3.32
log(activity) [21]: -9.04
AUC(0-t) [22]: 8160 ng·h/mL
Activity [23]: inactive
log(activity) [24]: -3.32
Activity (U-937 [25]): 71.09%
Activity (U-937 [26]): 31.72%
Activity (U-937 [27]): 23.01%
Activity (U-937 [28]): 14.2%
Activity (U-937 [29]): 1.9%
half-life [30]: 1.25 h
Activity [31]: Active
Activity (U-937 [32]): Dose-Dependent Effect
Activity [33]: inactive
Activity (U-937 [34]): 5.5%
Cmax [35]: 4270 ng/mL
Activity (U-937 [36]): Dose-Dependent Effect
AUC(0-t) [37]: 1050 ng·h/mL
Activity [38]: Active
log(activity) [39]: -3.32
Activity (U-937 [40]): 5.84%
Activity (U-937 [41]): 63.89%
log(activity) [42]: -5.03
Activity [43]: Active
IC50 (U-937 [44]): 19 nM
log(activity) [45]: -3.32
log(activity) [46]: -3.63
Activity (U-937 [47]): Dose-Dependent Effect
Activity [48]: inactive
Activity (U-937 [49]): 14.45%
log(activity) [50]: -3.32
Emax [51]: 81.7%
Activity (U-937 [52]): 9.99%
viability at 0.01 µM (U-937 [53]): 93.2%
Activity [54]: inactive
Activity (U-937 [55]): 8.87%
